Experimental data taken from ChEMBL document CHEMBL5303573, “Mapping human microbiome drug metabolism by gut bacteria and their genes” (Nature, 2019).

Assay: The drug is tested on Providencia stuartii strain: ATCC25827 for biotransformation. The drug concentrations were measured before and after a 12-h incubation by liquid-chromatography-coupled mass spectrometry (LC–MS)
Conditions: 2 µM

| Compound | Bacterial Biotransformation |
| --- | --- |
| COC(=O)[C@H](c1ccccc1Cl)N1CCc2sccc2C1.O=S(=O)(O)O [CLOPIDOGREL BISULFATE] | Compound NOT metabolized |
| C=CCc1ccccc1OCC(O)CNC(C)C (stereo not drawn) [ALPRENOLOL] | Compound NOT metabolized |
| CN(C)C(=O)Oc1cc(OC(=O)N(C)C)cc(C(O)CNC(C)(C)C)c1 (stereo not drawn) [BAMBUTEROL] | Compound NOT metabolized |

Assay: The drug is tested on Bacteroides uniformis strain: ATCC8492 for biotransformation. The drug concentrations were measured before and after a 12-h incubation by liquid-chromatography-coupled mass spectrometry (LC–MS)
Conditions: 2 µM

| Compound | Bacterial Biotransformation |
| --- | --- |
| COC(=O)[C@H](c1ccccc1Cl)N1CCc2sccc2C1.O=S(=O)(O)O [CLOPIDOGREL BISULFATE] | Compound metabolized |
| C=CCc1ccccc1OCC(O)CNC(C)C (stereo not drawn) [ALPRENOLOL] | Compound NOT metabolized |
| CN(C)C(=O)Oc1cc(OC(=O)N(C)C)cc(C(O)CNC(C)(C)C)c1 (stereo not drawn) [BAMBUTEROL] | Compound NOT metabolized |

Assay: The drug is tested on Eubacterium rectale strain: ATCC33656 for biotransformation. The drug concentrations were measured before and after a 12-h incubation by liquid-chromatography-coupled mass spectrometry (LC–MS)
Conditions: agathobacter rectalis, 2 µM

| Compound | Bacterial Biotransformation |
| --- | --- |
| C=CCc1ccccc1OCC(O)CNC(C)C (stereo not drawn) [ALPRENOLOL] | Compound NOT metabolized |
| CN(C)C(=O)Oc1cc(OC(=O)N(C)C)cc(C(O)CNC(C)(C)C)c1 (stereo not drawn) [BAMBUTEROL] | Compound NOT metabolized |

Assay: The drug is tested on Anaerococcus hydrogenalis strain: DSM7454 for biotransformation. The drug concentrations were measured before and after a 12-h incubation by liquid-chromatography-coupled mass spectrometry (LC–MS)
Conditions: 2 µM

| Compound | Bacterial Biotransformation |
| --- | --- |
| COC(=O)[C@H](c1ccccc1Cl)N1CCc2sccc2C1.O=S(=O)(O)O [CLOPIDOGREL BISULFATE] | Compound NOT metabolized |
| C=CCc1ccccc1OCC(O)CNC(C)C (stereo not drawn) [ALPRENOLOL] | Compound NOT metabolized |
| CN(C)C(=O)Oc1cc(OC(=O)N(C)C)cc(C(O)CNC(C)(C)C)c1 (stereo not drawn) [BAMBUTEROL] | Compound NOT metabolized |

Assay: The drug is tested on Bacteroides dorei strain: DSM17855 for biotransformation. The drug concentrations were measured before and after a 12-h incubation by liquid-chromatography-coupled mass spectrometry (LC–MS)
Conditions: phocaeicola dorei, 2 µM

| Compound | Bacterial Biotransformation |
| --- | --- |
| COC(=O)[C@H](c1ccccc1Cl)N1CCc2sccc2C1.O=S(=O)(O)O [CLOPIDOGREL BISULFATE] | Compound metabolized |
| C=CCc1ccccc1OCC(O)CNC(C)C (stereo not drawn) [ALPRENOLOL] | Compound NOT metabolized |
| CN(C)C(=O)Oc1cc(OC(=O)N(C)C)cc(C(O)CNC(C)(C)C)c1 (stereo not drawn) [BAMBUTEROL] | Compound NOT metabolized |

Conditions: bifidobacterium adolescentis, 12 h, 2 µM
Description: The drug is tested on Bifidobacterium adolescentis strain: ATCC 15703 for biotransformation. The drug concentrations were measured before and after a 12-h incubation by liquid-chromatography-coupled mass spectrometry (LC–MS)

| Compound | Bacterial Biotransformation |
| --- | --- |
| COC(=O)[C@H](c1ccccc1Cl)N1CCc2sccc2C1.O=S(=O)(O)O [CLOPIDOGREL BISULFATE] | Compound NOT metabolized |
| C=CCc1ccccc1OCC(O)CNC(C)C (stereo not drawn) [ALPRENOLOL] | Compound NOT metabolized |
| CN(C)C(=O)Oc1cc(OC(=O)N(C)C)cc(C(O)CNC(C)(C)C)c1 (stereo not drawn) [BAMBUTEROL] | Compound NOT metabolized |

Assay: The drug is tested on Anaerotruncus colihominis strain: DSM17241 for biotransformation. The drug concentrations were measured before and after a 12-h incubation by liquid-chromatography-coupled mass spectrometry (LC–MS)
Conditions: 2 µM

| Compound | Bacterial Biotransformation |
| --- | --- |
| COC(=O)[C@H](c1ccccc1Cl)N1CCc2sccc2C1.O=S(=O)(O)O [CLOPIDOGREL BISULFATE] | Compound NOT metabolized |
| C=CCc1ccccc1OCC(O)CNC(C)C (stereo not drawn) [ALPRENOLOL] | Compound NOT metabolized |
| CN(C)C(=O)Oc1cc(OC(=O)N(C)C)cc(C(O)CNC(C)(C)C)c1 (stereo not drawn) [BAMBUTEROL] | Compound NOT metabolized |

Assay: The drug is tested on Bacteroides ovatus strain: ATCC8483 for biotransformation. The drug concentrations were measured before and after a 12-h incubation by liquid-chromatography-coupled mass spectrometry (LC–MS)
Conditions: 2 µM

| Compound | Bacterial Biotransformation |
| --- | --- |
| COC(=O)[C@H](c1ccccc1Cl)N1CCc2sccc2C1.O=S(=O)(O)O [CLOPIDOGREL BISULFATE] | Compound metabolized |
| C=CCc1ccccc1OCC(O)CNC(C)C (stereo not drawn) [ALPRENOLOL] | Compound NOT metabolized |
| CN(C)C(=O)Oc1cc(OC(=O)N(C)C)cc(C(O)CNC(C)(C)C)c1 (stereo not drawn) [BAMBUTEROL] | Compound NOT metabolized |

Assay: The drug is tested on Ruminococcus gnavus strain: ATCC29149 for biotransformation. The drug concentrations were measured before and after a 12-h incubation by liquid-chromatography-coupled mass spectrometry (LC–MS)
Conditions: mediterraneibacter gnavus, 2 µM

| Compound | Bacterial Biotransformation |
| --- | --- |
| COC(=O)[C@H](c1ccccc1Cl)N1CCc2sccc2C1.O=S(=O)(O)O [CLOPIDOGREL BISULFATE] | Compound NOT metabolized |
| C=CCc1ccccc1OCC(O)CNC(C)C (stereo not drawn) [ALPRENOLOL] | Compound NOT metabolized |
| CN(C)C(=O)Oc1cc(OC(=O)N(C)C)cc(C(O)CNC(C)(C)C)c1 (stereo not drawn) [BAMBUTEROL] | Compound NOT metabolized |

Assay: The drug is tested on Edwardsiella tarda strain: ATCC23685 for biotransformation. The drug concentrations were measured before and after a 12-h incubation by liquid-chromatography-coupled mass spectrometry (LC–MS)
Conditions: 2 µM

| Compound | Bacterial Biotransformation |
| --- | --- |
| COC(=O)[C@H](c1ccccc1Cl)N1CCc2sccc2C1.O=S(=O)(O)O [CLOPIDOGREL BISULFATE] | Compound NOT metabolized |
| C=CCc1ccccc1OCC(O)CNC(C)C (stereo not drawn) [ALPRENOLOL] | Compound NOT metabolized |
| CN(C)C(=O)Oc1cc(OC(=O)N(C)C)cc(C(O)CNC(C)(C)C)c1 (stereo not drawn) [BAMBUTEROL] | Compound NOT metabolized |

Assay: The drug is tested on Bacteroides coprophilus strain: DSM18228 for biotransformation. The drug concentrations were measured before and after a 12-h incubation by liquid-chromatography-coupled mass spectrometry (LC–MS)
Conditions: 2 µM

| Compound | Bacterial Biotransformation |
| --- | --- |
| COC(=O)[C@H](c1ccccc1Cl)N1CCc2sccc2C1.O=S(=O)(O)O [CLOPIDOGREL BISULFATE] | Compound metabolized |
| C=CCc1ccccc1OCC(O)CNC(C)C (stereo not drawn) [ALPRENOLOL] | Compound NOT metabolized |
| CN(C)C(=O)Oc1cc(OC(=O)N(C)C)cc(C(O)CNC(C)(C)C)c1 (stereo not drawn) [BAMBUTEROL] | Compound NOT metabolized |

Assay: The drug is tested on Parabacteroides merdae strain: ATCC43184 for biotransformation. The drug concentrations were measured before and after a 12-h incubation by liquid-chromatography-coupled mass spectrometry (LC–MS)
Conditions: 2 µM

| Compound | Bacterial Biotransformation |
| --- | --- |
| COC(=O)[C@H](c1ccccc1Cl)N1CCc2sccc2C1.O=S(=O)(O)O [CLOPIDOGREL BISULFATE] | Compound metabolized |
| C=CCc1ccccc1OCC(O)CNC(C)C (stereo not drawn) [ALPRENOLOL] | Compound NOT metabolized |
| CN(C)C(=O)Oc1cc(OC(=O)N(C)C)cc(C(O)CNC(C)(C)C)c1 (stereo not drawn) [BAMBUTEROL] | Compound NOT metabolized |

Conditions: limosilactobacillus reuteri cf48-3a, 12 h, 2 µM
Description: The drug is tested on Lactobacillus reuteri CF48-3A strain: BEI HM-102 for biotransformation. The drug concentrations were measured before and after a 12-h incubation by liquid-chromatography-coupled mass spectrometry (LC–MS)

| Compound | Bacterial Biotransformation |
| --- | --- |
| COC(=O)[C@H](c1ccccc1Cl)N1CCc2sccc2C1.O=S(=O)(O)O [CLOPIDOGREL BISULFATE] | Compound NOT metabolized |
| C=CCc1ccccc1OCC(O)CNC(C)C (stereo not drawn) [ALPRENOLOL] | Compound NOT metabolized |
| CN(C)C(=O)Oc1cc(OC(=O)N(C)C)cc(C(O)CNC(C)(C)C)c1 (stereo not drawn) [BAMBUTEROL] | Compound NOT metabolized |

Conditions: bacteroides fragilis, 12 h, 2 µM
Description: The drug is tested on Bacteroides fragilis strain: NCTC 9343 for biotransformation. The drug concentrations were measured before and after a 12-h incubation by liquid-chromatography-coupled mass spectrometry (LC–MS)

| Compound | Bacterial Biotransformation |
| --- | --- |
| COC(=O)[C@H](c1ccccc1Cl)N1CCc2sccc2C1.O=S(=O)(O)O [CLOPIDOGREL BISULFATE] | Compound metabolized |
| C=CCc1ccccc1OCC(O)CNC(C)C (stereo not drawn) [ALPRENOLOL] | Compound NOT metabolized |
| CN(C)C(=O)Oc1cc(OC(=O)N(C)C)cc(C(O)CNC(C)(C)C)c1 (stereo not drawn) [BAMBUTEROL] | Compound NOT metabolized |

Assay: The drug is tested on Clostridium ramosum strain: DSM1402 for biotransformation. The drug concentrations were measured before and after a 12-h incubation by liquid-chromatography-coupled mass spectrometry (LC–MS)
Conditions: thomasclavelia ramosa, 2 µM

| Compound | Bacterial Biotransformation |
| --- | --- |
| CN(C)C(=O)Oc1cc(OC(=O)N(C)C)cc(C(O)CNC(C)(C)C)c1 (stereo not drawn) [BAMBUTEROL] | Compound NOT metabolized |

Assay: The drug is tested on Alistipes indistinctus strain: DSM22520 for biotransformation. The drug concentrations were measured before and after a 12-h incubation by liquid-chromatography-coupled mass spectrometry (LC–MS)
Conditions: 2 µM

| Compound | Bacterial Biotransformation |
| --- | --- |
| COC(=O)[C@H](c1ccccc1Cl)N1CCc2sccc2C1.O=S(=O)(O)O [CLOPIDOGREL BISULFATE] | Compound NOT metabolized |
| C=CCc1ccccc1OCC(O)CNC(C)C (stereo not drawn) [ALPRENOLOL] | Compound NOT metabolized |

Conditions: parabacteroides johnsonii, 12 h, 2 µM
Description: The drug is tested on Parabacteroides johnsonii strain: DSM18315 for biotransformation. The drug concentrations were measured before and after a 12-h incubation by liquid-chromatography-coupled mass spectrometry (LC–MS)

| Compound | Bacterial Biotransformation |
| --- | --- |
| COC(=O)[C@H](c1ccccc1Cl)N1CCc2sccc2C1.O=S(=O)(O)O [CLOPIDOGREL BISULFATE] | Compound metabolized |
| CN(C)C(=O)Oc1cc(OC(=O)N(C)C)cc(C(O)CNC(C)(C)C)c1 (stereo not drawn) [BAMBUTEROL] | Compound NOT metabolized |

Assay: The drug is tested on Bacteroides pectinophilus strain: ATCC43243 for biotransformation. The drug concentrations were measured before and after a 12-h incubation by liquid-chromatography-coupled mass spectrometry (LC–MS)
Conditions: 2 µM

| Compound | Bacterial Biotransformation |
| --- | --- |
| COC(=O)[C@H](c1ccccc1Cl)N1CCc2sccc2C1.O=S(=O)(O)O [CLOPIDOGREL BISULFATE] | Compound NOT metabolized |
| CN(C)C(=O)Oc1cc(OC(=O)N(C)C)cc(C(O)CNC(C)(C)C)c1 (stereo not drawn) [BAMBUTEROL] | Compound NOT metabolized |

Assay: The drug is tested on Enterococcus faecalis strain: V583 for biotransformation. The drug concentrations were measured before and after a 12-h incubation by liquid-chromatography-coupled mass spectrometry (LC–MS)
Conditions: 2 µM

| Compound | Bacterial Biotransformation |
| --- | --- |
| COC(=O)[C@H](c1ccccc1Cl)N1CCc2sccc2C1.O=S(=O)(O)O [CLOPIDOGREL BISULFATE] | Compound NOT metabolized |
| CN(C)C(=O)Oc1cc(OC(=O)N(C)C)cc(C(O)CNC(C)(C)C)c1 (stereo not drawn) [BAMBUTEROL] | Compound NOT metabolized |

Assay: The drug is tested on Ruminococcus torques strain: ATCC27756 for biotransformation. The drug concentrations were measured before and after a 12-h incubation by liquid-chromatography-coupled mass spectrometry (LC–MS)
Format: ADME
Parameters: dose 2 uM, timepoint 0 vs 12 hours
Conditions: 2 µM

| Compound | Bacterial Biotransformation |
| --- | --- |
| COC(=O)[C@H](c1ccccc1Cl)N1CCc2sccc2C1.O=S(=O)(O)O [CLOPIDOGREL BISULFATE] | Compound NOT metabolized |
| C=CCc1ccccc1OCC(O)CNC(C)C (stereo not drawn) [ALPRENOLOL] | Compound NOT metabolized |
| CN(C)C(=O)Oc1cc(OC(=O)N(C)C)cc(C(O)CNC(C)(C)C)c1 (stereo not drawn) [BAMBUTEROL] | Compound NOT metabolized |
